Measured values reported in US20250009716A1, “NOVEL INHIBITORS OF CLAUDIN-1 FOR THERAPEUTIC INTERVENTIONS” (BOARD OF REGENTS OF THE UNIVERSITY OF NEBRASKA, priority 2021, published 2025).
Entries after “also recorded” stand apart in the source; their conditions may differ.

Experiments:
[1] = tested on: Claudin-1 deficient HCT116 cells; experiment: Resistance to anoikis in claudin-1 deficient cells (negative control); format: cell-based
Text: The crystal structure of claudin-1 is unknown. Therefore, an in-silico protein folding program, YASARA, was used to identify an effective claudin-1 inhibitor. The resultant 3D-structure was then modeled using Molegro Virtual Docker (MVD) software program. These in-silico analyses identified putative cavities in the claudin-1 protein that can be targeted by small molecule inhibitors. Next, a 100K library of small molecules was screened in silico using the MVD. The top 10 inhibitors that bound to the Site #3 (targeting near c-terminal domain; the most accessible pocket; FIG. 2A) with the best binding energies were selected as hits and used for further testing. Screening of these inhibitors named Inihibitor-1 (1-1) to Inhibitor-10 (I-10) was done using SW480claudin-1, SW620 and control cells. Claudin-1 deficient HCT116 cells (WT-APC) or SW620shRNAcld-1 were used as negative controls. Resistance to anoikis and cell invasion was used as biological end-points in testing these inhibitors. […]

[2] = tested on: claudin-1 overexpressing cells; experiment: Co-treatment with 5FU, inhibition of cell growth; format: cell-based; settings: 16 in combination with 5-FU
Text: Curve fitting analysis was done using four parametric logistic regression curve.
The CSC cells contribute to the generation of metastasis (16-19), and key CSC characteristics are highly relevant to metastasis, including invasive motility, and, resistance to apoptosis (20,21). […] Considering that chemoresistance is central to the CRC progression and metastasis, we further tested if adjuvant use of 16 with 5FU can have significant bearing upon these traits. Colon cancer cells were subjected to exogenous administration of 16 alone, or in combination with the 5-FU, the conventional anti-CRC drug. […] To further determine the mechanistic details the effect of 16 on association of claudin-1 and Src, SW480claudin-1 cells were treated with 16 or the vehicle and resultant cell lysate was subjected to Proximity ligation assay (PLA) or Co—IP.

[3] = Tissue distribution after i.v. dose; format: in vivo, mice
Procedure: To determine the in vivo characteristics of this drug, a pharmacokinetic and tissue distribution study on 16 was performed. Following a single i.v. dose of 16 (1 mg/kg) in mice (C57B/16; n=5), serial blood samples were obtained at 0.08, 0.25, 0.75, 2, 4, 6, 8 and 24 hours after the injection and plasma samples were analyzed for 16 concentrations. Pharmacokinetic parameter values were obtained from the plasma concentration-time data using standard non-compartmental methods (WinNonlin, PharSight Corp). […] To assess the tissue distribution of 16, mice were sacrificed at 2, 8 and 24 hours after the i.v. administration of the drug. Measurable concentrations of 16 were detected in all studied tissues at 2, 8, and 24 h. […] Next, metabolic stability studies of 16 was evaluated using mouse liver S9 fractions for the in vitro assessment of phase I and II metabolism. […] Testosterone, 7-HC and diclofenac were used as positive controls, ensuring proper incubation conditions were maintained. […] The results of these in vitro drug metabolism studies guided the rational development of 16 structural analogs.
Eight-week-old healthy Balb/c mice (male and female) mice were utilized for the pharmacokinetic and biodistribution studies. In this section, up to two different administration routes (oral or IP) were evaluated for each selected drug product. The specified drug and dose were administered to a 25 g mouse. A total of 36 mice were used for each compound tested. Blood was collected by cheek bleeding at selected times between 0-168 h post-injection. Liver, spleen, kidney, brain and bone marrow were harvested at terminal time points (2, 8, 24, 48, 72 h). Tissue samples were collected and processed for bioanalysis. The drug concentration in blood and tissues was measured by LC-MS/MS using methods developed during preliminary studies and validated according to FDA guidance. Drug accumulation in tissue was assessed by calculating a tissue to plasma concentration ratio (Kp), an indicator of drug accumulation (FIGS. 6A, 6B, 7, and 38).

SW480claudin-1 cells = experiment: Cell survival (MTT assay) versus dasatinib; format: cell-based
Procedure: Effects on (A) phosphorylation of Src and EphA2 and (B) cell survival (MTT assay) were determined. Significant changes are boxed.

[4] = Blood urea nitrogen (BUN) toxicity measurement; design: species or system mice; settings: mouse, in vivo
Text: Data are expressed as means±SEM (n=5 mice/group).

Structure (SMILES): COc1cc2ccccc2cc1C(=O)NC(=S)Nc1ccc(-c2nc3ccccc3[nH]2)cc1 [Compound 16]
- effect on HCT116 cells [1]: remained unaffected
- combination effect with 5FU [2]: significant synergy; also recorded: synergistic effect in inhibition of cell growth
- descending order of Kp ratios ([3]; 1 mg/kg i.v.): lungs>liver>spleen>kidney>heart>>brain
- tissue concentrations ([3]; 2, 8 and 24 h after 1 mg/kg i.v.): higher concentrations in the lung and liver tissue
- Kp ([3]; C57B/16, mouse, iv, all tissues except brain, 1 mg/kg i.v., read-out: tissue to plasma concentration ratio (Kp)): ≥ 1

Structure (SMILES): O=C(NC(=S)Nc1ccc(-c2nc3ccccc3o2)cc1)c1ccc2ccccc2c1 [PDS-0330]
- percent cell survival compared with dasatinib (SW480claudin-1 cells): significantly decreased percent cell survival more than dasatinib; also recorded: more effective in inhibiting cell survival
- cytotoxic effect by blood urea nitrogen (BUN) [4]: no cytotoxic effect in mice
